Results published in publication PMC12582325 (Proceedings of the National Academy of Sciences of the …, 2025).
Values joined by “and” are separate entries in the source; they are usually repeats but may differ in a detail not shown here. Equal values may be shown once. Where a SMILES comes first, the peptide text is derived from it.

Legend:
Fo.Ste2 [1] = assay type: cell-based, Fusarium oxysporum
Fo.Ste2 [2] = assay type: cell-based, Fusarium oxysporum; remark: listed apart in the source
Bb.Ste2 = assay type: cell-based, Beauveria bassiana
Hj.Hpr2 = assay type: cell-based, Hypocrea jecorina
[3] = test system: no_GPCR (negative control lacking a GPCR); assay type: cell-based, Saccharomyces cerevisiae
[4] = test system: F. oxysporum microconidia; assay: Germination of F. oxysporum microconidia; assay type: cell-based, Fusarium oxysporum f. sp. lycopersici 4287; parameters: Germination of F. oxysporum microconidia (data of Sup.Fig.10): unit not given here; details: for Germination of F. oxysporum microconidia (data of Sup.Fig.10): 400 μM pheromone, 13 h, at least 300 spores counted
Experimental: For F. oxysporum microconidia production, the strain was grown for 3 to 4 d in liquid potato dextrose broth (PDB) at 28 °C and 170 rpm. Germination media ([10]) was used for assessing the spore germination. RE was prepared by removing 2-wk-old tomato plants from vermiculite and washing the roots to remove any adhering substrates ([11]).
Supplementary Figure 10. Germination of F. oxysporum microconidia after 13 h of incubation in Germination Media at a cell density of […] microconidia/mL. The assay was performed with 400 μM of pheromone. All points represent the average of three biological replicates in which at least 300 spores were counted. Statistical significance was determined through one-way analysis of variance (ANOVA) with Dunnett’s multiple comparisons (✱p ≤ 0.05).

[5] = test system: F. oxysporum on tomato roots; assay: Tomato root inoculation and fluorescence microscopy of infected roots; assay type: in vivo, Fusarium oxysporum / Solanum lycopersicum; details: exogenous addition of pheromone to microconidia; 3 d after inoculation; fluorescence microscopy
[6] = test system: F. oxysporum infection of tomato plants; assay: Tomato plant mortality assay; assay type: in vivo, Fusarium oxysporum / Solanum lycopersicum; details: groups of 10 plants; 3.2 × 10^6 microconidia/mL supplemented with pheromone once at inoculation; 50 d; Kaplan-Meier, log-rank
Experimental: Tomato plant infection assays were performed as described ([61]) with F. oxysporum microconidia and treatment inoculation as described above. Plants were transferred to a growth and plant survival was recorded daily for 50 d. Plant death was diagnosed as a complete collapse of the stem, without any green parts left. The Kaplan–Meier test was used to assess statistical significance of differences in survival among groups using the log-rank test in GraphPad Prism. The infection experiment was conducted two times with 10 plants per condition.

F. oxysporum germ tubes = details: gradient of 400 μM pheromone against the solvent (50% methanol); 13 h; water-agar; three biological replicates; Fig. 5A
Experimental: For the B. bassiana and F. oxysporum chemotropism assay and plant infection assays the pheromones were dissolved in 50% (v/v) MeOH to reach a concentration of 4,000 μM.
Fungal chemotropism was conducted as previously described ([11]). For each compound or combination of compounds tested, 300 hyphal tips were scored. All experiments were performed in three biological replicates.

[7] = test system: F. oxysporum in tomato roots; assay: Quantification of fungal DNA in tomato roots (qPCR); details: 3 d after inoculation, washed roots; compared to the untreated infected roots; three biological replicates
[8] = SC + added peptide, individual replicates (n=3), SC alone: 0, 0, 0

SMILES: CC(C)C[C@H](NC(=O)[C@H](CS)NC(=O)[C@@H](N)Cc1c[nH]c2ccccc12)C(=O)N[C@@H](Cc1c[nH]c2ccccc12)C(=O)N[C@@H](C)C(=O)NCC(=O)N[C@@H](CCC(N)=O)C(=O)N1CCC[C@H]1C(=O)N[C@@H](CS)C(=O)N[C@@H](Cc1c[nH]c2ccccc12)C(=O)O [A4] (H-WCLWAGQPCW-OH; N-terminus assumed)
- Activation of Fo.Ste2 biosensor, in words (Fo.Ste2 [1]): agonists for Fo.Ste2
- logEC50 (Fo.Ste2 [1]): -9.288
- EC50 (Fo.Ste2 [1]; read-out: half-maximal effective concentration (EC50)): 0.516 nM
- Fold decline in diploids containing Fo.Ste2 (Fo.Ste2 [2]): 0.2 fold
- Mean 2 (SC + peptide), Fo share of diploids (Fo.Ste2 [2]): 0.1003
- Mean Diff, SC vs. + peptide (Fo.Ste2 [2]; n = 3): 0.3913
- barcode qPCR of diploids, Fg.Ste2 x Hj.Pheromone (Fg.Ste2; SC + added peptide, individual replicates (n=3), SC alone: 0.003, 0.004, 0.001): 0
- barcode qPCR of diploids, Fg.Ste2 x Fo.Pheromone (Fg.Ste2; SC + added peptide, individual replicates (n=3), SC alone: 0.005, 0.005, 0.013): 0.012 and 0.1 and 0.242
- barcode qPCR of diploids, Fg.Ste2 x no_Pheromone (Fg.Ste2; SC + added peptide, individual replicates (n=3), SC alone: 0.012, 0.001, 0.003): 0.015 and 0.01 and 0.037
- barcode qPCR of diploids, Fg.Ste2 x Bb.Pheromone (Fg.Ste2; SC + added peptide, individual replicates (n=3), SC alone: 0.012, 0.009, 0.006): 0.004 and 0 (2×)
- barcode qPCR of diploids, Fg.Ste2 x Fg.Pheromone (Fg.Ste2; SC + added peptide, individual replicates (n=3), SC alone: 0.206, 0.237, 0.235): 0.014 and 0.192 and 0
- Fold reduction of Fg.Ste2 and Fg.Pheromone interaction (Fg.Ste2; consortium in SC media, 10 μM external peptide): 0.3 fold
- Fold increase in diploids containing Fg.Ste2 (Fg.Ste2; consortium in SC media, 10 μM external peptide, three biological replicates): without increasing
- Fold increase in formation of diploids containing Bb.Ste2 (Bb.Ste2): 8.7 fold
- Mean 2 (SC + peptide), Bb share of diploids (Bb.Ste2): 0.4075
- Mean Diff, SC vs. + peptide (Bb.Ste2; n = 3): -0.3609
- Fold increase in formation of diploids containing Hj.Hpr2 (Hj.Hpr2): 12.1 fold
- Mean 2 (SC + peptide), Hj share of diploids (Hj.Hpr2): 0.02456
- barcode qPCR of diploids, Hj.HPR2 x Bb.Pheromone (Hj.Hpr2): 0
- barcode qPCR of diploids, Hj.HPR2 x no_Pheromone (Hj.Hpr2): 0
- Mean Diff, SC vs. + peptide (Hj.Hpr2; n = 3): -0.02252
- barcode qPCR of diploids, no_GPCR x Fg.Pheromone [3, 8]: 0.035 and 0.012 and 0
- barcode qPCR of diploids, no_GPCR x Hj.Pheromone [3, 8]: 0.002 and 0 (2×)
- barcode qPCR of diploids, no_GPCR x Bb.Pheromone ([3]; SC + added peptide, individual replicates (n=3), SC alone: 0, 0, 0.004): 0.013 and 0.091 and 0
- barcode qPCR of diploids, no_GPCR x Fo.Pheromone ([3]; SC + added peptide, individual replicates (n=3), SC alone: 0, 0, 0.007): 0.014 and 0.039 and 0.054
- barcode qPCR of diploids, no_GPCR x no_Pheromone ([3]; SC + added peptide, individual replicates (n=3), SC alone: 0.001, 0.001, 0): 0.04 and 0 and 0.015
- Fold increase in diploids of the negative control lacking a GPCR ([3]; consortium in SC media, 10 μM external peptide, P = 0.013): 19 fold
- Germination of F. oxysporum microconidia (data of Sup.Fig.10) ([4]; biological replicate 1 (first line)): 15
- Germination of F. oxysporum microconidia (data of Sup.Fig.10) ([4]; biological replicate 2 (second line)): 33,88
- Germination of F. oxysporum microconidia (data of Sup.Fig.10) ([4]; biological replicate 3 (third line)): 6,9
- Mean Diff, Solvent vs. peptide ([4]; Sup.Fig.10, Dunnett's multiple comparisons test, n = 3): 25,18
- Mean 2 (peptide), germination ([4]; Sup.Fig.10, Solvent control mean 43,77, mean of n = 3): 18,59
- Effect on F. oxysporum microconidia germination, in words ([4]; exogenous addition of 400 μM peptide, 13 h in Germination Media, 3.2 x 106 microconidia/mL): significant reduction
- Adhesion of F. oxysporum germ tubes among themselves or to tomato roots [5]: increased adhesion
- Tomato plant survival [6]: no significant difference in plant survival
- Chemotropic response in F. oxysporum germ tubes (F. oxysporum germ tubes): significant chemotropic response
- Fungal biomass in inoculated tomato roots (qPCR of Fol4287 actin gene, 2^−ΔΔCt, normalized to tomato gapdh) [7]: significant reduction in fungal biomass
